Experimental data reported in PMC5572722, “Dimerization in tailoring uptake efficacy of the HSV-1 derived membranotropic peptide gH625” (Scientific Reports, 2017).
Positions of bridges follow the written chain, without caps; N, C: chain ends. Residues, ends and D or L forms follow the SMILES beside them. Chains are numbered I, II in the order given. No end group written: not given here.

How the values were obtained:
[1] = Acceptor photobleaching FRET, GUV fusion; conditions: NBD/Rhodamine GUVs mixed 1:4 with unlabelled GUVs, peptide:GUVs ratio 0.5
From the text: Figure 10 Mean fluorescence of GUVs suspension resulting after gH625 or gH625-H7 administration, calculated by the AccPbFRET plug in of ImageJ. The FRET efficiency E is 0.729, calculated as follows: E = 1 − (F Donor quenched by acceptor/F Donor de quenched) (A). Time course of FRET effect due to gH625 or gH625-H7 administration to GUVs. Values are expressed as integrated density, defined as the mean gray value per the mean area. Each time point represents the same field acquired in both channels. Each data set represents the mean of at least 10 GUVs for each field (B,C).
To evaluate the fusion of GUVs due to the addition of gH625 and gH625-H7, a slightly modified protocol for acceptor photobleaching FRET was performed. […] An aliquot of the mix was charged in the Burker’s chamber under Axioskop (Zeiss) fluorescence microscope; images were acquired using Axiocam Mrc5 CCD camera (Zeiss) in both at 525 nm and 615 nm and analysed with the Physiology module of Axiovision software 4.8 (Zeiss) to calculate the basic fluorescence of the donor. Samples were then treated with gH625 and gH625-H7 to a peptide:GUVs ratio of 0.5 and images were immediately acquired to calculate the fluorescence of the donor and the photobleaching of the acceptor (only used as a control for the amount of bleaching) after the exposure to peptides. […]

[2] = Peptide aggregation, Thioflavin T (ThT) fluorescence; type: physicochemical; conditions: ThT 25 μM, 0.1 mM DOPG/Chol 60/40 LUVs, 100 mM NaCl, 10 mM Tris–HCl pH 7.4, 25 °C
Procedure: Figure 4 Panel A reports the quenching of tryptophan by acrylamide. Stern-Volmer plots of acrylamide quenching of gH625, gH625-H7, gH625-G7 in buffer (closed symbols) and in LUVs composed of DOPG/Chol 60/40 (mol/mol) (open symbols). Peptide concentration is 4 μM. Panel B reports the […] as a function of the peptide/lipid ratio of gH625, gH625-H7, gH625-G7 in buffer (closed symbols) and in 0.1 mM LUVs composed of DOPG/Chol 60/40 (mol/mol) (open symbols).
The three peptides are not aggregated in buffer as evidenced by the fact that the fluorescence remained unaltered after the addition of the peptides (see closed symbols). On the contrary, they all caused a progressive aggregation in LUVs as the fluorescence change increased dramatically.
Peptide aggregation was monitored using ThioflavinT (ThT), which combines rapidly with aggregated peptides producing a new excitation maximum at 450 nm (slit width, 5 nm) and an enhanced emission at 482 nm (slit width, 5 nm)[43]. This experiment was conducted in LUVs (final phospholipid concentration of 0.1 mM) and buffer containing 25 μM ThT in 100 mM NaCl, 10 mM Tris–HCl, pH 7.4. Fluorescence was measured before and after the addition of peptides. In particular, we tested the following peptide concentrations 0.005, 0.01, 0.015, 0.02, 0.03, 0.04, 0.05 and 0.07 mM at 25 °C. Aggregation (A) was determined according to the following equation7 %A=(Ff−F0)/(Fmax−F0)×100 where Ff is the value of fluorescence after peptide addition, F0 the initial fluorescence in the absence of peptide and Fmax is the fluorescence maximum obtained immediately after peptide addition. Kinetic data were obtained at a concentration of 4 μM.

[3] = lipid 0.1 mM, 25 °C, outer NBD reduced with 100 mM dithionite, average of three experiments
Procedure: The extent of lipid mixing between only the inner monolayers of vesicles in solution, labelled with NBD and Rho, was determined adding an aqueous reducing agent (dithionite) which eliminated the NBD fluorescence from the vesicle membranes’ outer monolayer.
Figure 2 Inner monolayer in DOPC/Chol 60/40 (mol/mol) (A) and DOPG/Chol 60/40 (mol/mol) (B). […] Lipid concentration is 0.1 mM. Percentage of inner monolayer fusion as a function of the peptide/lipid ratio is reported and each trace represents an average of three independent experiments.
Membrane fusion was monitored by the fluorescence resonance energy transfer assay (FRET)[70] at 25 °C. Two populations of LUVs, one labelled with 0.6 mol% of NBD (donor) and Rho (acceptor) and one unlabelled were mixed and the variation in NBD fluorescence due to membrane fusion was determined. After the addition of aliquots of peptides the change in donor emission (excitation wavelength 465 nm, emission wavelength 530 nm) was monitored. […] The 100% of fusion was determined upon the addition of Triton X-100 (0.05% v/v). All results are an average of at least three experiments. A cut off filter at 515 nm was used.
The dithionite was removed through size exclusion chromatography, Sephadex G-50 DNA Grade, (GE Healthcare, Pharmacia, Uppsala, Sweden) with buffer containing 10 mM TRIS, 100 mM NaCl, and 1 mM EDTA, pH 7.4.

[4] = Lipid mixing (NBD/Rho FRET membrane fusion); conditions: lipid 0.1 mM, 25 °C
From the text: In order to gain insight into the ability to interact and perturb the lipid membrane, nitrobenzoxadiazole (NBD) and Rhodamine (Rho) were used as the donor and acceptor of fluorescence energy transfer. Dilution of labelled vesicles caused by peptide induced membrane fusion, determines a larger average distance between fluorescent and quenching lipids and thus a reduction in the fluorescence energy transfer efficiency. […] The three peptides interact more strongly with LUVs containing cholesterol, confirming the preference for more rigid membranes.
Figure 1 Peptide-promoted membrane fusion as determined by lipid mixing of gH625 (A), gH625-H7 (B) and gH625-G7 (C) in LUVs composed of: DOPG, DOPG/Chol 60/40 (mol/mol) and DOPC/Chol 60/40 (mol/mol). […] Lipid concentration is 0.1 mM. […] Panel D reports the peptide-promoted membrane fusion of the three peptides in DOPG/Chol LUVs 60/40 (mol/mol).
A cut off filter at 515 nm was used.

Compound	increase of donor (NBD) fluorescence compared to GUVs alone [1] [fold]	peptide aggregation in LUVs [2]	fusion of the inner monolayer, DOPC/Chol LUVs [3]	fusion of the inner monolayer, DOPG/Chol LUVs [3]	lipid mixing activity in DOPG/Chol LUVs ([4]; compared to the other peptides)	lipid mixing activity in DOPG LUVs ([4]; average of three experiments)
I: HGLASTLTRWAHYNALIRAFGCGKKKK-NH2 / II: HGLASTLTRWAHYNALIRAFGCGKKKK-NH2 (disulfide I:22-II:22) [gH625-H7]	3.92	oligomerize significantly	complete fusion	complete fusion	significantly higher activity	–
CC[C@H](C)[C@H](NC(=O)[C@H](CC(C)C)NC(=O)[C@H](C)NC(=O)[C@H](CC(N)=O)NC(=O)[C@H](Cc1ccc(O)cc1)NC(=O)[C@H](Cc1c[nH]cn1)NC(=O)[C@H](C)NC(=O)[C@H](Cc1c[nH]c2ccccc12)NC(=O)[C@H](CCCNC(=N)N)NC(=O)[C@@H](NC(=O)[C@H](CC(C)C)NC(=O)[C@@H](NC(=O)[C@H](CO)NC(=O)[C@H](C)NC(=O)[C@H](CC(C)C)NC(=O)CNC(=O)[C@@H](N)Cc1c[nH]cn1)[C@@H](C)O)[C@@H](C)O)C(=O)N[C@@H](CCCNC(=N)N)C(=O)N[C@@H](C)C(=O)N[C@@H](Cc1ccccc1)C(=O)NCC(=O)NCC(=O)NCC(=O)N[C@@H](CCCCN)C(=O)N[C@@H](CCCCN)C(=O)N[C@@H](CCCCN)C(=O)N[C@@H](CCCCN)C(N)=O [gH625-G7] (H-HGLASTLTRWAHYNALIRAFGGGKKKK-NH2)	–	oligomerize significantly	only a small fusion	–	–	–
CC[C@H](C)[C@H](NC(=O)[C@H](CC(C)C)NC(=O)[C@H](C)NC(=O)[C@H](CC(N)=O)NC(=O)[C@H](Cc1ccc(O)cc1)NC(=O)[C@H](Cc1c[nH]cn1)NC(=O)[C@H](C)NC(=O)[C@H](Cc1c[nH]c2ccccc12)NC(=O)[C@H](CCCNC(=N)N)NC(=O)[C@@H](NC(=O)[C@H](CC(C)C)NC(=O)[C@@H](NC(=O)[C@H](CO)NC(=O)[C@H](C)NC(=O)[C@H](CC(C)C)NC(=O)CNC(=O)[C@@H](N)Cc1c[nH]cn1)[C@@H](C)O)[C@@H](C)O)C(=O)N[C@@H](CCCNC(=N)N)C(=O)N[C@@H](C)C(=O)N[C@@H](Cc1ccccc1)C(N)=O [gH625] (H-HGLASTLTRWAHYNALIRAF-NH2)	3.71	lower aggregation at low peptide/lipid ratio	only a small fusion	–	–	less active than the other two
